Laboratory results published in patent EP4559912A1, “SULFUR-CONTAINING HETEROAROMATIC RING COMPOUND, PHARMACEUTICAL COMPOSITION THEREOF, AND USE THEREOF” (Evopoint Biosciences Co., Ltd., priority 2022, dated 2024).

Biological target: His-GST tagged PARG (Homo sapiens, UniProt Q86W56)
Experiment: In vitro PARG assay (TR-FRET)
Type: biochemical
Conditions: 4 pM His-GST tagged PARG, 30 nM Bio PARylated PARP1 substrate, 20 min at room temperature, TR-FRET Em 665/Em 615
Experimental: The in vitro PARG assay experiment was conducted in a standard 384-well plate with a total volume of 15 µL. To a 384-well plate containing the test compound was added 5 µL of an enzyme reaction mixture (50 mM Tris-HCL pH 7.5, 50 mM KCL, 0.01% Triton X-100, 0.01% BSA, and 4 pM His-GST tagged PARG). The plate was incubated at room temperature for 10 min, and then 5 µL of a substrate mixture (50 mM Tris-HCL pH 7.5, 50 mM KCL, 0.01% Triton X-100, 0.01% BSA, and 30 nM Bio PARylated PARP1) was added to initiate the reaction. The plate was further incubated at room temperature for 20 min, and then 5 µL of a detection reagent was added to terminate the reaction. The detection reagent was prepared from a buffer (50 mM Tris-HCl pH 7.5, 50 mM KCL, 0.01% Triton X-100, and 0.01% BSA), 3 µM compound PDD00017273, 1.5× Mab anti-6HIS XL665 (Cisbio: 61HISXLA), and 1.5× streptavidin terbium cryptate (Cisbio: 610SATLA). The final concentrations of the compound PDD00017273, the 1.5× Mab anti-6HIS XL665 (Cisbio: 61HISXLA), and the 1.5× streptavidin terbium cryptate were 1 µM, 0.5×, and 0.5×, respectively. After incubation in the dark at room temperature for 120 min, TR-FRET signals were measured at Ex 340, Em 665, and Em 615. The ratio for each well was calculated as Em 665/Em 615 (the ratio here corresponds to the ratio of fluorescence signals at the wavelengths).

Sequence of His-GST tagged PARG (Q86W56 whole entry): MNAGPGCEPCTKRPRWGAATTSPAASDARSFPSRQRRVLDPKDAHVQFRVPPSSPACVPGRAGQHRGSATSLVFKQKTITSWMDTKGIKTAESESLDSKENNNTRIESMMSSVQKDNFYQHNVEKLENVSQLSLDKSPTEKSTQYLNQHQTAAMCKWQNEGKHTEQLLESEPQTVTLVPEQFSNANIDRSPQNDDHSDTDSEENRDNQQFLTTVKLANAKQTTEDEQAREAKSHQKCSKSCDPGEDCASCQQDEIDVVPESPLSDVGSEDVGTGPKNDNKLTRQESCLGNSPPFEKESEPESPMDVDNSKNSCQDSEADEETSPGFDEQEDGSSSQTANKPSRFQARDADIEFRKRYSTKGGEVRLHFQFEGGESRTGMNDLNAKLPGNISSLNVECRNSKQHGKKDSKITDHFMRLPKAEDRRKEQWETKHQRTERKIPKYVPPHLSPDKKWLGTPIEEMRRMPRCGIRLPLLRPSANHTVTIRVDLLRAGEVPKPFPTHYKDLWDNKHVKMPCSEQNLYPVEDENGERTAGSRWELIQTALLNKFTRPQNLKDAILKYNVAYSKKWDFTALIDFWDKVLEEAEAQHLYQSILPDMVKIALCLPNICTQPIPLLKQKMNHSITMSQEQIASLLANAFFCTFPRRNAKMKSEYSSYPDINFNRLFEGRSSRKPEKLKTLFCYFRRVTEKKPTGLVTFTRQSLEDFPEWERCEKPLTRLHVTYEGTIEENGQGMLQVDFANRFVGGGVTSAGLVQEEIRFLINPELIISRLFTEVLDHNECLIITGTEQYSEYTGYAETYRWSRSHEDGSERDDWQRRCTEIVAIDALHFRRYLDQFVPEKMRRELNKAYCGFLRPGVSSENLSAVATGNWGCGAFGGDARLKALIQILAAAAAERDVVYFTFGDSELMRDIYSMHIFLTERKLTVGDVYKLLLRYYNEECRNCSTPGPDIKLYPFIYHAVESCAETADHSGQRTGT

SMILES | IC50
Cc1nnc(-n2ncc3c(N4CCN(C(=O)C(=O)C(C)(C)C)[C@H](C)C4)cc(S(=O)(=O)NC4(C#N)CC4)cc32)s1 [EVO29407] | < 100 nM
C[C@H](O)C(=O)N1CCN(c2cc(S(=O)(=O)NC3(C#N)CC3)cc3c2cnn3-c2nnc(C(F)F)s2)C[C@H]1C [EVO29334] | < 100 nM
CO[C@@H](C(=O)N1CCN(c2cc(S(=O)(=O)NC3(C)CC3)cc3c2cnn3-c2nnc(C)s2)C[C@H]1C)C(C)C [EVO29421] | < 100 nM
C[C@H](CO)C(=O)N1CCN(c2cc(S(=O)(=O)NC3(C#N)CC3)cc3c2cnn3-c2nnc(C(F)F)s2)C[C@H]1C [EVO29351] | < 100 nM
CC(C)C(=O)C(=O)N1CCN(c2cc(S(=O)(=O)NC3(C)CC3)cc3c2cnn3-c2nnc(C(F)F)s2)C[C@H]1C [EVO29383] | < 100 nM
C[C@@H]1CN(c2cc(S(=O)(=O)NC3(C#N)CC3)cc3c2c(F)nn3-c2nnc(C(F)F)s2)CCN1C(=O)[C@](C)(O)C(F)(F)F [EVO29762] | < 100 nM
C[C@@H]1CN(c2cc(S(=O)(=O)NC3(C#N)CC3)cc3c2cnn3-c2nnc(C(F)F)s2)CCN1C(=O)C(O)C1CC1 (single isomer, unassigned) [EVO29537] | < 100 nM
C[C@@H]1CN(c2cc(S(=O)(=O)NC3(C#N)CC3)cc3c2nnn3-c2nnc(C(F)F)s2)CCN1C(=O)[C@H](O)C(C)(C)C [EVO29725] | 100 to 500 nM
CO[C@H](C)C(=O)N1CCN(c2cc(S(=O)(=O)NC3(C)CC3)cc3c2cnn3-c2nnc(C)s2)C[C@H]1C [EVO29412] | < 100 nM
CO[C@@H](C(=O)N1CCN(c2cc(S(=O)(=O)NC3(C)CC3)cc3c2cnn3-c2nnc(C(F)F)s2)C[C@H]1C)C(C)C [EVO29419] | < 100 nM
COC(C(=O)N1CCN(c2cc(S(=O)(=O)NC3(C#N)CC3)cc3c2cnn3-c2nnc(C(F)F)s2)C[C@H]1C)C1CC1 (single isomer, unassigned) [EVO29715P1] | < 100 nM
C[C@@H]1CN(c2cc(S(=O)(=O)NC3(C#N)CC3)cc3c2cnn3-c2nnc(C(F)F)s2)CCN1C(=O)C(O)C(C)(C)CF (single isomer, unassigned) [EVO29751P2] | < 100 nM
C[C@@H]1CN(c2cc(S(=O)(=O)NC3(C)CC3)cc3c2cnn3-c2nnc(C(F)F)s2)CCN1C(=O)[C@](C)(O)C(F)(F)F [EVO29496] | < 100 nM
C[C@@H]1CN(c2cc(S(=O)(=O)NC3(C#N)CC3)cc3c2cnn3-c2nnc(C(F)F)s2)CCN1C(=O)[C@](C)(O)C(F)(F)F [EVO29462] | < 100 nM
C[C@@H]1CN(c2cc(S(=O)(=O)NC3(C#N)CC3)cc3c2cnn3-c2nnc(C(F)F)s2)CCN1C(=O)C(N)=O [EVO29298] | < 100 nM
C[C@@H]1CN(c2cc(S(=O)(=O)NC3(C#N)CC3)cc3c2cnn3-c2nnc(C(F)F)s2)CCN1C(=O)C(C)(C)OC(F)F [EVO29592] | < 100 nM
Cc1nnc(-n2ncc3c(N4CCN(C(=O)[C@@H](C)O)[C@H](C)C4)cc(S(=O)(=O)NC4(C)CC4)cc32)s1 [EVO29338] | < 100 nM
COC(C(=O)N1CCN(c2cc(S(=O)(=O)NC3(C#N)CC3)cc3c2cnn3-c2nnc(C(F)F)s2)C[C@H]1C)C1CC1 (single isomer, unassigned) [EVO29715P2] | < 100 nM
C[C@@H]1CN(c2cc(S(=O)(=O)NC3(C)CC3)cc3c2cnn3-c2nnc(C(F)F)s2)CCN1C(=O)[C@@H](C)O [EVO29337] | < 100 nM
